Data set [1] concerns isolated rabbit heart. Briefly: Atrial fibrillation induced by rapid atrial pacing with carbachol in isolated (Langendorff) rabbit heart. Set-up: species or system New Zealand white rabbits. The protocol: Hearts from New Zealand white rabbits (1-2 kg) were used in the experiments. Animals were treated with an intravenous injection of 400 IU/kg heparin and anaesthetized by intravenous infusion of 30 mg/kg pentobarbital and sacrificed by cervical dislocation. The protocols were approved by the Department of Animal Health and Food Control of the Ministry of Agriculture and Rural Development, Hungary (XIII/01031/000/2008) and by the Ethical Committee for the Protection of Animals in Research of the University of Szeged, Szeged, Hungary (approval number I-74-125-2007). After median thoracotomy the heart was quickly removed and placed into cold (4° C.) Krebs-Henseleit solution (KHS) containing (in mM): NaCl 118, KCl 4.3, KH2PO4 1.2, MgSO4 1.2, Na pyruvate 5, NaHCO3 25, glucose 11, CaCl2 1.8, pH 7.4 when gassed with a mixture of 95% O2 and 5% CO2. The heart was then mounted on a modified Langendorff apparatus and perfused retrogradely through the aorta with oxygenated KHS warmed to 37° C. The pulmonary vein was also cannulated in order to perfuse the left atrial chamber. In order to record the optical monophasic action potentials the hearts were also loaded with the voltage sensitive fluorescent dye di-4 Anneps for 5 min. To stop the cardiac contractions and avoid motion artefacts during the optical image acquisition the electrical and mechanical activity of the heart was uncoupled by adding 11 mM 2,3-butanedione monoxime to the perfusate.
Epicardial electrograms from the left atrial and left ventricular wall were amplified with a surface electrode amplifier (Experimetria, Hungary) and monitored using a high frequency oscilloscope (Leader Electronics Corporation, Korea). […] The high resolution optical action potential mapping system consisted of a light-emitting diode (LED) lamp as an excitation light source at a wavelength of 527 nm and a high-resolution, high-speed metal-oxide-semiconductor (CMOS) camera (MiCam02, type MCO2C4) equipped with an 580 nm long pass filter for acquiring the fluorescence images from the surface of the heart at a frequency of 833 Hz. Fluorescence images were analyzed using the Brainvison Analyze software (Brainvision Inc Tokyo, Japan).
After allowing the hearts to stabilize for 15 min, acute episodes of atrial fibrillation were induced with rapid electrical stimulation of the atria at a rate of 50 Hz for 10 sec in the presence of 1 μM carbachol in the perfusate. […] All data are expressed as mean±SEM.
All chemicals were purchased from Sigma-Aldrich (St. Louis, Mo., USA), except DEA and di-4 Anneps. Di-4 Anneps was purchased from Molecular Probes Inc. (Eugene, Oreg., USA). […]

Data set [2] relates to conscious rats. The protocol:
The present experiments were performed on male, Sprague-Dawley CFY rats weighing 260-300 g. During a preliminary open-chest surgery we applied a loose silk loop around the left main coronary artery, and then the chest was closed (Leprán et al., 1983). Seven-eight days after the preliminary surgery—after complete recovery and healing—the loose silk loop was tightened to occlude the coronary artery in conscious, freely moving animals. During the first 15 min of myocardial infarction a bipolar ECG was recorded continuously (PowerLab 8SP, ADInstruments, Great Britain).
We followed the survival rate during the acute phase (first 15 min) and during the subsequent 16 hours after coronary artery occlusion. The incidence and duration of arrhythmias in the acute phase were evaluated according to the Lambeth Conventions (Walker et al., 1988), i.e. ventricular fibrillation, ventricular tachycardia, and other types of arrhythmias, including ventricular extrasystoles, bigeminy, and salvos. The size of myocardial infarction was measured in the animals surviving for 16 hours after coronary artery occlusion using nitrotetrazolium-blue dye staining.
Long-term oral pretreatment was applied for 1 month before the coronary artery occlusion. […] Control animals were given the vehicle in a volume of 5 ml/kg.

Data set [3] concerns conscious dogs with structural atrial remodelling. Nature of the data set: Chronic rapid atrial pacing induced atrial remodelling and burst-induced atrial fibrillation in conscious dogs. Here is the method: The experiments were performed on chronically instrumented Beagle dogs of both sexes, weighing 12-13 kg. The animals were subjected to the following surgery under general anaesthesia: pacemakers were implanted into bilateral subcutaneous pockets in the neck area (Logos, Karios; Biotronik Hungaria Ltd.) and were attached to pacemaker electrodes implanted into the right ventricle and right atrium. Radiofrequency catheter ablation was performed in each animal to achieve third degree atrioventricular (AV) block so that during subsequent rapid atrial pacing (400/min) the ventricles are protected from high heart rates. […] On the seventh day after surgery, following the measurement of right atrial effective refractory period the atrial pacemaker was set to a frequency of 400/min to achieve atrial electrical and structural remodelling. Right atrial rapid pacing is necessary to maintain for 3 months in this model to obtain complete remodeling of the atria signalled by the reduction of right atrial effective refractory period below 80 ms.
The body weight of animals was monitored for strict adherence to the desired dose.
The right atrial effective refractory period (ERP) was measured using the S1 -S2 protocol at cycle lengths of 150 and 300 ms. In addition ERP monitoring, 10-second long burst stimuli were applied at 800/min frequency to induce atrial fibrillation and the incidence of AF, the duration of AF episodes were measured before commencement of oral drug therapy and then after the initiation of therapy every 4 days.

Data set [4] concerns dog atrial and ventricular tissue. Nature of the data set: Atrial and ventricular action potential parameters after chronic oral treatment of non-instrumented dogs. The format is in vivo, Beagle dogs. The settings on record: 500 ms cycle length, 4-week oral DEA 30 or AMIO 45 mg/kg/day.
Data set [5] relates to dogs. The following applies: 4 weeks oral AMIO 45 mg/kg (from 243.2 ms, SE=9.7 after) or DEA 30 mg/kg (from 243.6 ms, SE=7.3 after).
Data set [6] has as its system cardiac thyroid receptors. The following applies: reported earlier (van Beeren et al, 1995; Latham et al, 1987); cited from earlier work.
Data set [7] deals with rats. Briefly: Chronic 28-day non-GLP toxicology in rats.

Structures are written as SMILES. Values joined by “and” are separate entries in the source; they are usually repeats but may differ in a detail not shown here. Equal entries are not always repeated.

On to `CCCCc1oc2ccccc2c1C(=O)c1cc(I)c(OCCNCC)c(I)c1` [DEA, (2-Butylbenzofuran-3-yl)-[4-(2-ethylaminoethoxy)-3,5-diiodophenyl]methanone], for which, in data set [1] (1 μM carbachol, 50 Hz pacing 10 sec, DEA 5 μM, before treatment 5 of 5 hearts), the “Occurrence of atrial fibrillation, After treatment (number of hearts)” value is 0 of 5 and 0. The “Occurrence of atrial fibrillation after treatment, %” value in data set [1] (1 μM carbachol, DEA 5 μM, Control 77) was determined as 0%. Besides, the “Average duration of atrial fibrillation episodes, After treatment” value in data set [1] (1 μM carbachol, DEA 5 μM, mean±SEM, before treatment 110.2 ± 37.1) is reported as 0 ± 0. Moreover, the “Occurrence of atrial fibrillation” value in data set [1] (second trial) is reported as “completely prevented the occurrence of atrial fibrillation”. For the same compound, in data set [2] (1 month oral pretreatment), the “Death due to the 1 month treatment” value is on record as “No death occurred” and the “Survival rate during the acute phase of experimental myocardial infarction” value is “significantly improved”. Further, the “Behavioral changes, body weight increments” value in data set [2] (1 month oral pretreatment, AMIO 30 or 100, DEA 15 or 50 mg/kg/day) is reported as “Neither AMIO nor DEA produced any behavioral changes of the animals, or in body weight increments”. The same compound displayed an Arrhythmia score in data set [2] (first 15 min after coronary artery occlusion, 1 month oral AMIO 100 or DEA 50 mg/kg/day, control 4.77±0.33) of 3.27±0.56. For the same compound, the “Incidence of ventricular fibrillation” value in data set [2] (larger doses (AMIO 100, DEA 50 mg/kg/day), after coronary artery occlusion) is “significantly decreased”. Moreover, the “AF duration (s), Following 4-week treatment, individual animals” value in data set [3] (oral DEA 25 mg/kg/day, Control (before) 1 122.6, 1 505.8, 6 739.1) is 21.6 s and 44 s and 1.9 s. In data set [3] (oral DEA 25 mg/kg/day, Control (before) 3.05, 3.17, 3.82), the “Lg AF duration, Following 4-week treatment, individual animals” value is 1.33 and 1.64 and 0.28. In addition, the “ERP, Following 4-week treatment, individual animals” value in data set [3] (oral DEA 25 mg/kg/day, animals 2010/06, 2010/11, 2010/14, Control (before) <80 in all) was 80 ms (2×) and <80 ms. The “Incidence of AF, Following 4-week treatment, individual animals” value in data set [3] (oral DEA 25 mg/kg/day, burst-induced AF, Control (before) 60%, 50%, 27%) was 10% (2×) and 27%. For the same compound, the “Lg AF duration, Following 4-week treatment, Mean ± SE” value in data set [3] (oral DEA 25 mg/kg/day, n=3, Control (before) 3.35 ± 0.24) was 1.08 ± 0.41. For the same compound, the “Incidence of AF, Following 4-week treatment, Mean ± SE” value in data set [3] (oral DEA 25 mg/kg/day, n=3, Control (before) 45.7 ± 9.77) turned out to be 15.7 ± 5.67%. For the same compound, in data set [3] (oral DEA 25 mg/kg/day, n=3, Control (before) 3122 ± 1811.7), the “AF duration (s), Following 4-week treatment, Mean ± SE” value amounted to 22.5 ± 12.16 s. The “Incidence and duration of atrial fibrillation” value in data set [3] (three animals, 4-week oral treatment, DEA 25, AMIO 50 mg/kg/day, accompanied by prolongation of the ERP) was “markedly and significantly decreased”. In addition, the “Vmax (V/s), Dog atrium” value in data set [4] (n = 3, CONTROL 249.7 ± 52.7) came to 231.5 ± 45.4 V/s. Besides, the “APD90 (ms), Dog atrium” value in data set [4] (n = 4, CONTROL 123.9 ± 9.6) is reported as 156.6 ± 12.6 ms. Besides, the “ECG QTc interval after treatment” value in data set [5] is 266.9 ms. Moreover, the “Affinity for cardiac thyroid receptors compared to AMIO” value in data set [6] is reported as “higher affinity”. The “Detection of the administered drug 14 days after the completion of administration” value in data set [7] (28-day oral AMIO 200 mg/kg/day or DEA 100 mg/kg/day, plasma (DEA: plasma or cardiac tissue)) is on record as “not detected in plasma or cardiac tissue samples”. For the same compound, the “Elimination of DEA compared to AMIO” value in data set [7] (28-day oral study) is recorded as “significantly faster”.

(Values after patent US20150150842A1, “DESETHYLAMIODARONE COMPOSITIONS” (priority 2012, published 2015).)
